# In US9890153B2, “Substituted 1H-pyrrolo [2, 3-b] pyridine and 1H-pyrazolo [3, 4-b] pyridine derivatives as salt inducible kinase 2 (SIK2) inhibitors” (Arrien Pharmaceuticals LLC, priority 2012, dated 2018):
# “Also recorded” adds a separate entry of the source. Like-named read-outs stand apart in the source and are kept apart here.
# What was measured:
# [1] = Rat bioavailability and pharmacokinetics; type: in vivo, male Sprague Dawley rats
# Description: The objective of this study was to investigate the bio-availability and pharmacokinetics of a 1H-Pyrrolo[2,3-b]pyridine compound in male Sprague Dawley rats. A total of 6 male rats were used in the study.
# Dose formulations were prepared on the day of doing. Blood samples were collected at 0.083 (only IV), 0.25, 0.5, 1, 2, 4, 8 and 24 h post-dose. At each time point, approximately 0.2 mL of blood was withdrawn from each cannulated rat through jugular vein and transferred to a pre-labeled microfuge tube containing 20 μL of 200 mM K2EDTA permL of blood. Following collection of blood sample, equal volume of heparinized saline was flushed into jugular vein of rat. The blood samples were centrifuged at 5000 g for 5 minutes at 4±2° C. The plasma was separated within 30 min of scheduled time and stored below −60° C. until bio-analysis. The plasma samples were analyzed for 114 using a fit-for purpose liquid chromatographic tandem mass spectrometric detection (LC-MS/MS) method with a lower limit of quantification of 2.21 ng/mL. The pharmacokinetic parameters for compound 114 were calculated using the non-compartmental analysis tool of validated WinNonlin® software (Version 5.2).
# [2] = target: SIK2 (QIK) (SEQ ID NO: 11) (Homo sapiens, UniProt Q9H0K1); test: SIK2 kinase assay (radiometric, 10 μM ATP); type: biochemical; details: read-out: SIK2 (QIK) (SEQ ID NO: 11) kinase inhibition result
# Summary of the method: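 Radiometric filter-binding format: enzyme and substrate peptide incubated with or without compound and ATP mix for 20 min at 30 °C. Reaction stopped with phosphoric acid, captured on filter mats and washed with 0.8% phosphoric acid before counting.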
# SIK1 (SEQ ID NO: 10) = target: T1, SIK1 (SEQ ID NO: 10) (Homo sapiens, UniProt P57059); test: Protein kinase assay, SIK1; type: biochemical; details: read-out: SIK1 (SEQ ID NO: 10) kinase inhibition result
# T1 construct: Reaction Biology Corporation (assay service, HotSpot panel)
# Summary of the method: (§1)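 Radiometric assay in HEPES pH 7.5 with MgCl2, EGTA, Brij35, BSA, Na3VO4, DTT and 1% DMSO; compound added ~20 min before ATP plus 33P-ATP (10 μM final). IC50 from curve fits.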
# [3] = target: T2, SIK3 (QSK) (SEQ ID NO: 24) (Homo sapiens, UniProt Q9Y2K2); test: Protein kinase assay, SIK3; type: biochemical; details: read-out: SIK3 (QSK) (SEQ ID NO: 24) kinase inhibition result
# T2 construct: Reaction Biology Corporation (assay service, HotSpot panel)
# Summary of the method: as §1
# SKOv3 cells = test: SKOv3 i.p. xenograft in nu/nu mice; type: in vivo; details: derivatives 30, 60 mg/kg, taxol 10 mg/kg, FIG. 5a-c
# Description: We examined the growth-inhibitory effect of 1H-Pyrrolo[2,3-b]pyridine derivatives in-vivo employing an i.p. xenograft model in which nu/nu mice were inoculated i.p. with sensitive cell line SKOv3 cells. One week after inoculation, mice were randomized into six treatment groups receiving vehicle, 1H-Pyrrolo[2,3-b]pyridine derivatives 30, 60 mg/kg, taxol 10 mg/kg and 1H-Pyrrolo[2,3-b]pyridine plus taxol. Drug treatment was well tolerated except i.p. treatment second group, with no apparent toxicity throughout the study. At the end of an experiment, all mice were sacrificed for tumor volume, weight and each mouse examined and recorded at autopsy.
# SKOV3ip1 tumor cells = test: SKOv3 induced orthotopic murine model; type: in vivo, athymic female mice; details: 20-100 mg/kg i.p. or p.o.
# Description: Dose-finding experiments initiated by injecting SKOV3ip1 (SKOV3ip1 cells were collected from cultures using either 0.25% trypsin-EDTA (Life Technologies) on the cell line) tumor cells i.p. (2.5×10^5) into athymic female mice. 19 days after tumor cell orthotopic inoculation and when i.p. tumors were palpable, then the mice randomized into 6 dosage groups: 0 mg (vehicle alone, group 1), 20 and 40 mg/kg (groups 2, 3) received 1H-Pyrrolo[2,3-b]pyridine compound i.p QD for 3 days (M/W/F), 60 and 80 mg/kg (groups 4, 5) received 1H-Pyrrolo[2,3-b]pyridine compound p.o BID for 3 days (M/W/F) and 100 mg/kg group received 1H-Pyrrolo[2,3-b]pyridine compound+Taxol p.o BID for 3 days (M/W/F). […] Additionally, we performed quantitative RT-PCR, Western blot, and immunocytology experiments to identify overexpression of SIK2 in control groups against treatment groups along with SIK2 inhibition of transcription factor CREB via phosphorylation of its cofactor TORC2/CRTC2 as a biological indicator of SIK2 kinase activity. Further characterized the effects of SIK2 kinase inhibition on tumor growth inhibition, examined the tumor nodule formation.
# [4] = male, Sprague Dawley, plasma, IV 5 mg/kg, rat
# [5] = male, Sprague Dawley, plasma, PO 20 mg/kg, rat
# T2 sequence (Q9Y2K2 whole entry): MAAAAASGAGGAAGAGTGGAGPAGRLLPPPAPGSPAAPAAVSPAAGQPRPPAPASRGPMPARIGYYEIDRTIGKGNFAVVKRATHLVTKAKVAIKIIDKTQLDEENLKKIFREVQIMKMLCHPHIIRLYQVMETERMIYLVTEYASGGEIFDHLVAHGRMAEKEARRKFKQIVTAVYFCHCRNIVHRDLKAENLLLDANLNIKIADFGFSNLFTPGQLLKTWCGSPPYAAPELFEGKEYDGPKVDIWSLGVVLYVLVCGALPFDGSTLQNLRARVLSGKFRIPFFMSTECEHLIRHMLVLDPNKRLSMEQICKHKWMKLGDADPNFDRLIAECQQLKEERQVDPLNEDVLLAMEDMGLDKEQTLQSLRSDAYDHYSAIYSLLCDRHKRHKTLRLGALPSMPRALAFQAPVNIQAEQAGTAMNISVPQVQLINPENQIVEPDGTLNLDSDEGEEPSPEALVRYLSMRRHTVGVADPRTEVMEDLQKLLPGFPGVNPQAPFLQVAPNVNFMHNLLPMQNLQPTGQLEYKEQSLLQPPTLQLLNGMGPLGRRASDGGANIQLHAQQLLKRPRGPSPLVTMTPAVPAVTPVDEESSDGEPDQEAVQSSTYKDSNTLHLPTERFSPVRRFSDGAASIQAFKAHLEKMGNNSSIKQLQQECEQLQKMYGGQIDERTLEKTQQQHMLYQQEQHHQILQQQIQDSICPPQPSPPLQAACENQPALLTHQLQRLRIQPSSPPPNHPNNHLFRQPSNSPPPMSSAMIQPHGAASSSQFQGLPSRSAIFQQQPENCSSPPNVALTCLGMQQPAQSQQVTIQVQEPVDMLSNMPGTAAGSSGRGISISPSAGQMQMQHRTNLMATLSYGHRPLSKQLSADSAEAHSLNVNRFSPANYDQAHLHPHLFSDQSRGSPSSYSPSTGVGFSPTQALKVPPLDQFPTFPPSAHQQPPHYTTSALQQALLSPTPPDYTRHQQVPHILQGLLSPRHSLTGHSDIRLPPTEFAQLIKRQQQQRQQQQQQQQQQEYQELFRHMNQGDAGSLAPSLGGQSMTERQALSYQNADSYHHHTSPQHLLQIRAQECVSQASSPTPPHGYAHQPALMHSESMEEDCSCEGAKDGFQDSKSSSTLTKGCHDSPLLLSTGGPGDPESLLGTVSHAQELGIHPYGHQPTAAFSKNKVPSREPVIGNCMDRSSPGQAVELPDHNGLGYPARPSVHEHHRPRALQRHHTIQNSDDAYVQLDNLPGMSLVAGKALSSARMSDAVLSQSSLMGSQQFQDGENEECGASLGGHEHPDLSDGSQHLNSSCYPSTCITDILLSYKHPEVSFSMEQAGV
# T1 sequence (P57059 whole entry): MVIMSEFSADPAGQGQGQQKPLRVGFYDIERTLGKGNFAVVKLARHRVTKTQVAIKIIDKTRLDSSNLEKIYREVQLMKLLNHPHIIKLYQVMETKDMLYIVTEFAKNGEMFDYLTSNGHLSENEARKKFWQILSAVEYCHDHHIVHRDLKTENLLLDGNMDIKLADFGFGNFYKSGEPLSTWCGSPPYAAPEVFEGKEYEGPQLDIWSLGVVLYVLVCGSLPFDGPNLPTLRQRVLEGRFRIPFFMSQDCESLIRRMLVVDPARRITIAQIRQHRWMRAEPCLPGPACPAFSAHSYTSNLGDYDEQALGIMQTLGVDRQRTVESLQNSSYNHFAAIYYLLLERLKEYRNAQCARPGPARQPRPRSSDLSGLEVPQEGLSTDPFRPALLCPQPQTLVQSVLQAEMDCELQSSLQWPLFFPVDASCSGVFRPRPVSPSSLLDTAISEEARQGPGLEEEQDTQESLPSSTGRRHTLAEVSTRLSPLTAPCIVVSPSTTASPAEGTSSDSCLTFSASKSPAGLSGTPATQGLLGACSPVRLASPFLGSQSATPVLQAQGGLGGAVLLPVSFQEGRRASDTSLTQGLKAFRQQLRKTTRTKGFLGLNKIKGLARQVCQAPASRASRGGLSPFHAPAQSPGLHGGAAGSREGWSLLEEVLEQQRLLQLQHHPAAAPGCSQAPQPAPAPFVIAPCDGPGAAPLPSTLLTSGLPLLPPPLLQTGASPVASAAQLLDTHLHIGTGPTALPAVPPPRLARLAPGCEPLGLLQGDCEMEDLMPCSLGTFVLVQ
# Sequence of SIK2 (QIK) (SEQ ID NO: 11) (Q9H0K1 whole entry): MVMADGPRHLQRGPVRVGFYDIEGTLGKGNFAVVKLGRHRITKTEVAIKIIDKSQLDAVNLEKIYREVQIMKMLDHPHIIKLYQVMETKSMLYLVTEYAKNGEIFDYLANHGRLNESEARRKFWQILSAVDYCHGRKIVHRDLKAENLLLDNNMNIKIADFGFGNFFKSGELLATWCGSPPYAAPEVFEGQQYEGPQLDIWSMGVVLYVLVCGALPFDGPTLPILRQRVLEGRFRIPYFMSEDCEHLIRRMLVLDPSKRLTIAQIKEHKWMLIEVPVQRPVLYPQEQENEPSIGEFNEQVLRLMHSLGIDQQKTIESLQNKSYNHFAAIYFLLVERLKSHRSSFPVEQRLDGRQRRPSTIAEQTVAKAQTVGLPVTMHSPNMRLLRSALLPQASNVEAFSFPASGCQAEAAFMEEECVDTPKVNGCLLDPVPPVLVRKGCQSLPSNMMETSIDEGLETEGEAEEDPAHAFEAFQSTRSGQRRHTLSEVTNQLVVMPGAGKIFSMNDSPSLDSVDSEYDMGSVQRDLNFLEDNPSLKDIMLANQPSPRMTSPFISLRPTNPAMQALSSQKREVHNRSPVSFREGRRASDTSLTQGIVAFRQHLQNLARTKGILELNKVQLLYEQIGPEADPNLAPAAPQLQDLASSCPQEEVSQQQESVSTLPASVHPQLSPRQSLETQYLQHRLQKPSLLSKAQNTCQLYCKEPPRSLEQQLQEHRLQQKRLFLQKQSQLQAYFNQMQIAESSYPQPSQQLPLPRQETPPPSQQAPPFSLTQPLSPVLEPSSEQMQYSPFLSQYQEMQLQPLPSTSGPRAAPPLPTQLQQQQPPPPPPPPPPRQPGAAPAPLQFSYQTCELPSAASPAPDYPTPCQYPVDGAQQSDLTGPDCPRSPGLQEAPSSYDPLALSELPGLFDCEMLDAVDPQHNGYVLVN
Structure (SMILES),IC50 [2] [nM],IC50 (SIK1 (SEQ ID NO: 10)) [nM],IC50 [3] [nM],also measured
"Fc1cccc(-c2c[nH]c3ncc(-c4ccsc4)cc23)c1Cl [Example 114, 3-(2-chloro-3-fluorophenyl)-5-(thiophen-3-yl)-1H-pyrrolo[2,3-b]pyridine]",< 100,> 100,> 1000,"F ([1]; PO 20 mg/kg vs IV 5 mg/kg, from AUCinf and nominal doses): 15%; AUC(0-inf) [1, 4]: 2620 ± 647 ng·h/mL; AUC(0-t) [1, 4]: 2600 ± 637 ng·h/mL; clearance [1, 4]: 33.4 ± 9.57 mL/min/kg; half-life [1, 4]: 32.4 ± 3 min; Cmax ([1]; male, Sprague Dawley, plasma, IV 5 mg/kg, rat, read-out: Cmax (concentration at time zero)): 3850 ng/mL; Vd ([1]; male, Sprague Dawley, plasma, IV 5 mg/kg, rat, read-out: Vss): 1.61 ± 0.28 L/kg; AUC(0-inf) [1, 5]: 1600 ± 183 ng·h/mL; AUC(0-t) [1, 5]: 1580 ± 179 ng·h/mL; Cmax ([1]; male, Sprague Dawley, plasma, PO 20 mg/kg, rat, read-out: Cmax): 853 ng/mL; Tmax ([1]; male, Sprague Dawley, plasma, PO 20 mg/kg, rat, read-out: Tmax (median)): 15 min"
"CN1CCC(n2cc(-c3cnc4[nH]cc(-c5ccc6c(c5)OC(F)(F)O6)c4c3)cn2)CC1 [Example 220, 3-(2,2-difluorobenzo[d][1,3]dioxol-5-yl)-5-(1-(1-methylpiperidin-4-yl)-1H-pyrazol-4-yl)-1H-pyrrolo[2,3-b]pyridine]",> 100,> 1000,> 1000,–
"CS(=O)(=O)N1CCC(n2cc(-c3cnc4[nH]cc(-c5ccc6c(c5)OC(F)(F)O6)c4c3)cn2)CC1 [Example 221, 3-(2,2-difluorobenzo[d][1,3]dioxol-5-yl)-5-(1-(1-(methylsulfonyl)piperidin-4-yl)-1H-pyrazol-4-yl)-1H-pyrrolo[2,3-b]pyridine]",> 1000,> 1000,> 1000,–
"CCS(=O)(=O)N1CCC(n2cc(-c3cnc4[nH]cc(-c5ccc6c(c5)OC(F)(F)O6)c4c3)cn2)CC1 [Example 222, 3-(2,2-difluorobenzo[d][1,3]dioxol-5-yl)-5-(1-(1-(ethylsulfonyl)piperidin-4-yl)-1H-pyrazol-4-yl)-1H-pyrrolo[2,3-b]pyridine]",> 1000,> 1000,> 1000,–
"CCCS(=O)(=O)N1CCC(n2cc(-c3cnc4[nH]cc(-c5ccc6c(c5)OC(F)(F)O6)c4c3)cn2)CC1 [Example 223, 3-(2,2-difluorobenzo[d][1,3]dioxol-5-yl)-5-(1-(1-(propylsulfonyl)piperidin-4-yl)-1H-pyrazol-4-yl)-1H-pyrrolo[2,3-b]pyridine]",> 1000,> 1000,> 1000,–
"CS(=O)(=O)N1CCN(c2cnn(-c3cnc4[nH]cc(-c5ccc6c(c5)OC(F)(F)O6)c4c3)c2)CC1 [Example 224, 3-(2,2-difluorobenzo[d][1,3]dioxol-5-yl)-5-(4-(4-(methylsulfonyl)piperazin-1-yl)-1H-pyrazol-1-yl)-1H-pyrrolo[2,3-b]pyridine]",< 100,> 100,< 100,–
"OCCN1CCN(c2cnn(-c3cnc4[nH]cc(-c5ccc6c(c5)OC(F)(F)O6)c4c3)c2)CC1 [Example 225, 2-(4-(1-(3-(2,2-difluorobenzo[d][1,3]dioxol-5-yl)-1H-pyrrolo[2,3-b]pyridin-5-yl)-1H-pyrazol-4-yl)piperazin-1-yl)ethanol]",< 100,> 100,< 100,–
"COc1c(F)cc(F)cc1-c1c[nH]c2ncc(-c3cnn(C4CCN(CCO)CC4)c3)cc12 [Example 226, 2-(4-(4-(3-(3,5-difluoro-2-methoxyphenyl)-1H-pyrrolo[2,3-b]pyridin-5-yl)-1H-pyrazol-1-yl)piperidin-1-yl)ethanol]",< 100,> 100,< 100,–
"OCCN1CCC(n2cc(-c3cnc4[nH]cc(-c5ccc6c(c5)OC(F)(F)O6)c4c3)cn2)CC1 [Example 227, 2-(4-(4-(3-(2,2-difluorobenzo[d][1,3]dioxol-5-yl)-1H-pyrrolo[2,3-b]pyridin-5-yl)-1H-pyrazol-1-yl)piperidin-1-yl)ethanol]",< 100,> 100,< 100,–
CC(=O)O[C@H]1C(=O)[C@@]2(C)[C@H]([C@H](OC(=O)c3ccccc3)[C@]3(O)C[C@H](OC(=O)[C@H](O)[C@@H](NC(=O)c4ccccc4)c4ccccc4)C(C)=C1C3(C)C)[C@]1(OC(C)=O)CO[C@@H]1C[C@@H]2O [taxol],–,–,–,"antitumor effect (tumor volume, weight, number) (SKOv3 cells): significant antitumor effects; also recorded: inhibited the abdominal tumor growth and tumor cell dissemination; antitumor effect (SKOV3ip1 tumor cells): significant antitumor effects"
